Assay results reported in patent publication US20260262643A1, “HERBICIDAL BENZOXAZINES” (FMC CORPORATION, priority 2022, published 2026).

Key:
wheat [1] = experiment: Test C preemergence; assay type: in vivo, Triticum aestivum
In short: (§1)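 Greenhouse herbicide screen, 10-day duration. Test chemicals in solvent/surfactant blend were sprayed onto soil at sowing (pre) or onto 2–10 cm seedlings at one to two leaves (post); injury scored visually against controls, 0 no effect to 100 complete control.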

ryegrass, Italian [2] = experiment: Test C postemergence; assay type: in vivo, Lolium multiflorum; details: 10 days, 0 to 100 scale (0 no effect, 100 complete control)
In short: as §1

pigweed, palmer [3] = experiment: Test C postemergence; assay type: in vivo, Amaranthus palmeri; details: 10 days, 0 to 100 scale (0 no effect, 100 complete control)
In short: as §1

ducksalad = experiment: Test D flooded paddy test; assay type: in vivo, Heteranthera limosa; details: 250 g ai/ha, applied to paddy water, visual rating after 13 to 14 days, scale 0 to 100 (0 no effect, 100 complete control)
In short: (§2)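 Compounds go straight into paddy water over 2-leaf plants in pots flooded to 3 cm. Greenhouse holding lasts 13 to 14 days. Injury is scored by eye against controls from 0 (none) to 100 (complete control).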

kochia [4] = experiment: Test C postemergence; assay type: in vivo, Bassia scoparia; details: 10 days, 0 to 100 scale (0 no effect, 100 complete control)
In short: as §1

ryegrass, Italian [5] = experiment: Test C preemergence; assay type: in vivo, Lolium multiflorum
In short: as §1

sedge, umbrella = experiment: Test D flooded paddy test; assay type: in vivo, Cyperus difformis; details: 250 g ai/ha, applied to paddy water, visual rating after 13 to 14 days, scale 0 to 100 (0 no effect, 100 complete control)
In short: as §2

barnyardgrass [6] = experiment: Test D flooded paddy test; assay type: in vivo, Echinochloa crus-galli; details: 250 g ai/ha, applied to paddy water, visual rating after 13 to 14 days, scale 0 to 100 (0 no effect, 100 complete control)
In short: as §2

galium = experiment: Test C postemergence; assay type: in vivo, Galium aparine; details: 10 days, 0 to 100 scale (0 no effect, 100 complete control)
In short: as §1

wheat [7] = experiment: Test C postemergence; assay type: in vivo, Triticum aestivum; details: 10 days, 0 to 100 scale (0 no effect, 100 complete control)
In short: as §1

ragweed [8] = experiment: Test C postemergence; assay type: in vivo, Ambrosia artemisiifolia; details: 10 days, 0 to 100 scale (0 no effect, 100 complete control)
In short: as §1

barnyardgrass [9] = experiment: Test C postemergence; assay type: in vivo, Echinochloa crusgalli; details: 10 days, 0 to 100 scale (0 no effect, 100 complete control)
In short: as §1

soybean [10] = experiment: Test C postemergence; assay type: in vivo, Glycine max; details: 10 days, 0 to 100 scale (0 no effect, 100 complete control)
In short: as §1

pigweed, palmer [11] = experiment: Test C preemergence; assay type: in vivo, Amaranthus palmeri
In short: as §1

soybean [12] = experiment: Test C preemergence; assay type: in vivo, Glycine max
In short: as §1

kochia [13] = experiment: Test C preemergence; assay type: in vivo, Bassia scoparia
In short: as §1

corn [14] = experiment: Test C postemergence; assay type: in vivo, Zea mays; details: 10 days, 0 to 100 scale (0 no effect, 100 complete control)
In short: as §1

ragweed [15] = experiment: Test C preemergence; assay type: in vivo, Ambrosia artemisiifolia
In short: as §1

green foxtail [16] = experiment: Test C postemergence; assay type: in vivo, Setaria viridis; details: 10 days, 0 to 100 scale (0 no effect, 100 complete control)
In short: as §1

oat, wild [17] = experiment: Test C postemergence; assay type: in vivo, Avena fatua; details: 10 days, 0 to 100 scale (0 no effect, 100 complete control)
In short: as §1

green foxtail [18] = experiment: Test C preemergence; assay type: in vivo, Setaria viridis
In short: as §1

oat, wild [19] = experiment: Test C preemergence; assay type: in vivo, Avena fatua
In short: as §1

barnyardgrass [20] = experiment: Test C preemergence; assay type: in vivo, Echinochloa crusgalli
In short: as §1

horseweed = experiment: Test C postemergence; assay type: in vivo, Erigeron canadensis; details: 10 days, 0 to 100 scale (0 no effect, 100 complete control)
In short: as §1

rice = experiment: Test D flooded paddy test; assay type: in vivo, Oryza sativa; details: 250 g ai/ha, applied to paddy water, visual rating after 13 to 14 days, scale 0 to 100 (0 no effect, 100 complete control)
In short: as §2

blackgrass [21] = experiment: Test C postemergence; assay type: in vivo, Alopecurus myosuroides; details: 10 days, 0 to 100 scale (0 no effect, 100 complete control)
In short: as §1

corn [22] = experiment: Test C preemergence; assay type: in vivo, Zea mays
In short: as §1

blackgrass [23] = experiment: Test C preemergence; assay type: in vivo, Alopecurus myosuroides
In short: as §1

[24] = 500 g ai/ha, preemergence, 0 to 100 scale (0 no effect, 100 complete control)
[25] = Preemergence, 125 g ai/ha, 0 to 100 scale, 0 no effect, 100 complete control

CCOC[C@H]1CN(C(=O)c2cc(-n3cnc(C(C)(C)C)n3)cc3c2OCCO3)c2cccc(Cl)c2O1 [Compound 388]
70: Plant response rating, Galium (galium; Postemergence, 125 g ai/ha)
30: Plant response rating, Ryegrass, Italian (ryegrass, Italian [2]; 500 g ai/ha, postemergence) | Plant response rating, Corn (corn [14]; 500 g ai/ha, postemergence) | Plant response rating, Horseweed (horseweed; 500 g ai/ha, postemergence)
50: Plant response rating, Ryegrass, Italian (ryegrass, Italian [5]; [25]) | Plant response rating, Ragweed (ragweed [8]; 500 g ai/ha, postemergence) | Plant response rating, Barnyardgrass (barnyardgrass [20]; [25])
. 10: Plant response rating, Corn (corn [22]; [25])
40: Plant response rating, Kochia (kochia [13]; [25]) | Plant response rating, Oat, Wild (oat, wild [17]; 500 g ai/ha, postemergence) | Oat, Wild plant response rating (oat, wild [19]; [24]) | Blackgrass plant response rating (blackgrass [23]; [24])
20: Wheat plant response rating (wheat [1]; [24]) | Plant response rating, Wheat (wheat [1]; [25]) | Plant response rating, Ryegrass, Italian (ryegrass, Italian [2]; Postemergence, 125 g ai/ha) | Plant response rating, Barnyardgrass (barnyardgrass [9]; 500 g ai/ha, postemergence) | Plant response rating, Oat, Wild (oat, wild [17]; Postemergence, 125 g ai/ha) | Plant response rating, Oat, Wild (oat, wild [19]; [25])
10: Plant response rating, Wheat (wheat [7]; 500 g ai/ha, postemergence) | Plant response rating, Wheat (wheat [7]; Postemergence, 125 g ai/ha) | Plant response rating, Barnyardgrass (barnyardgrass [9]; Postemergence, 125 g ai/ha) | Plant response rating, Corn (corn [14]; Postemergence, 125 g ai/ha) | Plant response rating, Foxtail, Green (green foxtail [16]; Postemergence, 125 g ai/ha) | Corn plant response rating (corn [22]; [24]) | Plant response rating, Blackgrass (blackgrass [23]; [25])
0: Plant response rating, Ducksalad (Flood) (ducksalad) | Plant response rating, Sedge, Umbrella (Flood) (sedge, umbrella) | Plant response rating, Barnyardgrass (Flood) (barnyardgrass [6]) | Plant response rating, Horseweed (horseweed; Postemergence, 125 g ai/ha) | Plant response rating, Rice (Flood) (rice) | Plant response rating, Blackgrass (blackgrass [21]; 500 g ai/ha, postemergence) | Plant response rating, Blackgrass (blackgrass [21]; Postemergence, 125 g ai/ha)
100: Plant response rating, Pigweed, Palmer (pigweed, palmer [3]; 500 g ai/ha, postemergence) | Plant response rating, Pigweed, Palmer (pigweed, palmer [3]; Postemergence, 125 g ai/ha) | Plant response rating, Galium (galium; 500 g ai/ha, postemergence) | Plant response rating, Soybean (soybean [10]; 500 g ai/ha, postemergence) | Plant response rating, Soybean (soybean [10]; Postemergence, 125 g ai/ha) | Pigweed, Palmer plant response rating (pigweed, palmer [11]; [24]) | Plant response rating, Pigweed, Palmer (pigweed, palmer [11]; [25]) | Kochia plant response rating (kochia [13]; [24]) | Foxtail, Green plant response rating (green foxtail [18]; [24])
60: Ryegrass, Italian plant response rating (ryegrass, Italian [5]; [24]) | Plant response rating, Ragweed (ragweed [8]; Postemergence, 125 g ai/ha) | Ragweed plant response rating (ragweed [15]; [24]) | Plant response rating, Ragweed (ragweed [15]; [25]) | Plant response rating, Foxtail, Green (green foxtail [18]; [25])
90: Plant response rating, Kochia (kochia [4]; 500 g ai/ha, postemergence) | Plant response rating, Kochia (kochia [4]; Postemergence, 125 g ai/ha) | Soybean plant response rating (soybean [12]; [24]) | Plant response rating, Soybean (soybean [12]; [25]) | Plant response rating, Foxtail, Green (green foxtail [16]; 500 g ai/ha, postemergence) | Barnyardgrass plant response rating (barnyardgrass [20]; [24])
